The values that follow come from patent US20250195530A1, “POLQ INHIBITORS” (ASTRAZENECA AB, priority 2022, published 2025).

One assay relates to DLD-1 cells. The assay is described as follows: Inhibition of proliferation, DLD-1 BRCA2 wt control (Cell Titre Glo 3D). In kind it is cell-based. The conditions noted are these: Homo sapiens, DLD-1, 168 h, DLD-1 BRCA2 wt cells, 7 days; read-out: POLQ PD Prolif Lumin DLD1 mean pIC50 (converted). A digest of the protocol: (§1)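 DLD-1 BRCA2−/− (3,000 cells/mL) and parental DLD-1 (1,500 cells/mL) cells in phenol red-free RPMI 1640 with 10% FBS were exposed to a 10-point, three-fold compound series from 10 μM to 0.51 nM at 37 °C, 5% CO2. Medium and compound were replenished on day 6. CellTiter-Glo 3D luminescence was read on day 7 (DLD-1) or day 12 (BRCA2−/−), and IC50 was taken as 50% reduction of maximum signal.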

A further assay has as its system DLD-1 BRCA2−/− cells. Nature of the assay: Homologous recombination synthetic lethal inhibition of proliferation, DLD-1 BRCA2-/- (Cell Titre Glo 3D). In kind it is cell-based. Particulars: Homo sapiens, DLD-1, 288 h, DLD-1 BRCA2−/− cells, 12 days; read-out: POLQ PD Prolif Lumin BRCA2 −/− mean pIC50 (converted). A digest of the protocol: as §1

As for `Cc1c(-c2nc3c(OC4(C)CC4)ncnc3n2Cc2ccccc2)ccnc1OCCN1CCNCC1` [Example G14, 9-benzyl-8-(3-methyl-2-(2-(piperazin-1-yl)ethoxy)pyridin-4-yl)-6-(1-methylcyclopropoxy)-9H-purine], the values for the IC50 in the assay with DLD-1 cells and in the assay on DLD-1 BRCA2−/− cells were 7940 nM and 794 nM, respectively.

Consider `Cc1cc(OC[C@H]2CNCCO2)ncc1-c1nc2c(OC3(C)CC3)ncnc2n1Cc1ccccc1` [Example G15, (R)-2-(((5-(9-benzyl-6-(1-methylcyclopropoxy)-9H-purin-8-yl)-4-methylpyridin-2-yl)oxy)methyl)morpholine], for which the IC50 was more than 10000 nM with DLD-1 cells and 398 nM with DLD-1 BRCA2−/− cells.

`Cc1cc(OC[C@H]2COCCN2)ncc1-c1nc2c(OC3(C)CC3)ncnc2n1Cc1ccccc1` [Example G16, (R)-3-(((5-(9-benzyl-6-(1-methylcyclopropoxy)-9H-purin-8-yl)-4-methylpyridin-2-yl)oxy)methyl)morpholine]: the figures for the IC50 with DLD-1 cells and in the assay on DLD-1 BRCA2−/− cells were more than 10000 nM and 794 nM, respectively.

For `CN1CCN(CCOc2cc(F)c(-c3nc4c(OC5(C)CC5)ncnc4n3Cc3ccccc3)c(F)c2)CC1` [Example H1, 9-benzyl-8-(2,6-difluoro-4-(2-(4-methylpiperazin-1-yl)ethoxy)phenyl)-6-(1-methylcyclopropoxy)-9H-purine], the figures for the IC50 in the assay on DLD-1 cells and in the assay on DLD-1 BRCA2−/− cells were 3980 nM and 200 nM, respectively.

On to `CN1CCN(CCOc2ccc(-c3nc4c(OC5(C)CC5)ncnc4n3Cc3ccccc3)c(F)c2)CC1` [Example H2, 9-benzyl-8-(2-fluoro-4-(2-(4-methylpiperazin-1-yl)ethoxy)phenyl)-6-(1-methylcyclopropoxy)-9H-purine], for which the figures for the IC50 with DLD-1 cells and with DLD-1 BRCA2−/− cells were 3160 nM and 126 nM, respectively.

Regarding `COc1cc(OCCN2CCN(C)CC2)ccc1-c1nc2c(OC3(C)CC3)ncnc2n1Cc1ccccc1` [Example H3, 9-benzyl-8-(2-methoxy-4-(2-(4-methylpiperazin-1-yl)ethoxy)phenyl)-6-(1-methylcyclopropoxy)-9H-purine], the IC50 with DLD-1 cells is 7940 nM; in the assay with DLD-1 BRCA2−/− cells, 631 nM.

In the case of `Cc1cc(OCCN2CCN(C)CC2)cc(C)c1-c1nc2c(OC3(C)CC3)ncnc2n1Cc1ccccc1` [Example H4, 9-benzyl-8-(2,6-dimethyl-4-(2-(4-methylpiperazin-1-yl)ethoxy)phenyl)-6-(1-methylcyclopropoxy)-9H-purine], the IC50 is more than 10000 nM in the assay on DLD-1 cells and 251 nM in the assay on DLD-1 BRCA2−/− cells.

On to `CN1CCN(CCOc2ccc(-c3nc4c(OC5(C)CC5)ncnc4n3Cc3ccccc3)c(F)c2F)CC1` [Example H5, 9-benzyl-8-(2,3-difluoro-4-(2-(4-methylpiperazin-1-yl)ethoxy)phenyl)-6-(1-methylcyclopropoxy)-9H-purine], for which the IC50 was 7940 nM in the assay on DLD-1 cells and 398 nM in the assay with DLD-1 BRCA2−/− cells.

On to `CN1CCN(CCOc2ccc(-c3nc4c(OC5(C)CC5)ncnc4n3Cc3ccccc3)c(Br)c2)CC1` [Example H6, 9-benzyl-8-(2-bromo-4-(2-(4-methylpiperazin-1-yl)ethoxy)phenyl)-6-(1-methylcyclopropoxy)-9H-purine], for which the values for the IC50 in the assay on DLD-1 cells and in the assay on DLD-1 BRCA2−/− cells were 5010 nM and 63.1 nM, respectively.

Turning to `CN1CCN(CCOc2ccc(-c3nc4c(OC5(C)CC5)ncnc4n3Cc3cccnc3)c(Cl)c2)CC1` [Example H7, 8-(2-chloro-4-(2-(4-methylpiperazin-1-yl)ethoxy)phenyl)-6-(1-methylcyclopropoxy)-9-(pyridin-3-ylmethyl)-9H-purine], the results for the IC50 in the assay with DLD-1 cells and in the assay on DLD-1 BRCA2−/− cells were 3160 nM and 1000 nM, respectively.

On to `CN1CCN(CCOc2ccc(-c3nc4c(OC5(C)CC5)ncnc4n3Cc3ccccc3)c(C#N)c2)CC1` [Example H8, 2-(9-benzyl-6-(1-methylcyclopropoxy)-9H-purin-8-yl)-5-(2-(4-methylpiperazin-1-yl)ethoxy)benzonitrile], for which the IC50 with DLD-1 cells is more than 10000 nM; in the assay with DLD-1 BRCA2−/− cells it was 398 nM.

With `C#Cc1cc(OCCN2CCN(C)CC2)ccc1-c1nc2c(OC3(C)CC3)ncnc2n1Cc1ccccc1` [Example H9, 9-benzyl-8-(2-ethynyl-4-(2-(4-methylpiperazin-1-yl)ethoxy)phenyl)-6-(1-methylcyclopropoxy)-9H-purine], the IC50 is 3980 nM with DLD-1 cells and 501 nM in the assay with DLD-1 BRCA2−/− cells.

Take `CN1CCN(CCOc2ccc(-c3nc4c(OC5(C)CC5)ncnc4n3Cc3ccccc3)c(CO)c2)CC1` [Example H10, (2-(9-benzyl-6-(1-methylcyclopropoxy)-9H-purin-8-yl)-5-(2-(4-methylpiperazin-1-yl)ethoxy)phenyl)methanol]: the values for the IC50 with DLD-1 cells and in the assay with DLD-1 BRCA2−/− cells were more than 10000 nM and 794 nM, respectively.

Take `CC1(Oc2ncnc3c2nc(-c2ccc(OCCC(=O)O)cc2Cl)n3Cc2ccccc2)CC1` [Example H11, 3-(4-(9-benzyl-6-(1-methylcyclopropoxy)-9H-purin-8-yl)-3-chlorophenoxy)propanoic acid]: the IC50 in the assay with DLD-1 cells was more than 10000 nM; in the assay with DLD-1 BRCA2−/− cells it was 1000 nM.

For the compound `CC1(Oc2ncnc3c2nc(-c2ccc(OCCN4CCC[C@H]4C(=O)O)cc2Cl)n3Cc2ccccc2)CC1` [Example H12, (2-(4-(9-benzyl-6-(1-methylcyclopropoxy)-9H-purin-8-yl)-3-chlorophenoxy)ethyl)-L-proline], the IC50 in the assay on DLD-1 cells is more than 10000 nM; in the assay on DLD-1 BRCA2−/− cells it was 1000 nM.

Regarding `CC1(Oc2ncnc3c2nc(-c2ccc(OCCN4CC[C@@H](O)C4)cc2Cl)n3Cc2ccccc2)CC1` [Example H13, (R)-1-(2-(4-(9-benzyl-6-(1-methylcyclopropoxy)-9H-purin-8-yl)-3-chlorophenoxy)ethyl)pyrrolidin-3-ol], the results for the IC50 in the assay with DLD-1 cells and in the assay on DLD-1 BRCA2−/− cells were 3160 nM and 100 nM, respectively.

In the case of `CC1(Oc2ncnc3c2nc(-c2ccc(OCCN4CC(O)C4)cc2Cl)n3Cc2ccccc2)CC1` [Example H14, 1-(2-(4-(9-benzyl-6-(1-methylcyclopropoxy)-9H-purin-8-yl)-3-chlorophenoxy)ethyl)azetidin-3-ol], the IC50 with DLD-1 cells is 6310 nM; with DLD-1 BRCA2−/− cells, 126 nM.

For the compound `CC1(Oc2ncnc3c2nc(-c2ccc(OCCN4CCC(O)CC4)cc2Cl)n3Cc2ccccc2)CC1` [Example H15, 1-(2-(4-(9-benzyl-6-(1-methylcyclopropoxy)-9H-purin-8-yl)-3-chlorophenoxy)ethyl)piperidin-4-ol], the IC50 in the assay with DLD-1 cells was 1580 nM; with DLD-1 BRCA2−/− cells, 79.4 nM.

Take `CC1(Oc2ncnc3c2nc(-c2ccc(OCCN4CC5(CC(O)C5)C4)cc2Cl)n3Cc2ccccc2)CC1` [Example H16, 2-(2-(4-(9-benzyl-6-(1-methylcyclopropoxy)-9H-purin-8-yl)-3-chlorophenoxy)ethyl)-2-azaspiro[3.3]heptan-6-ol]: the IC50 with DLD-1 cells is 5010 nM; in the assay on DLD-1 BRCA2−/− cells it was 50.1 nM.

On to `CC1(Oc2ncnc3c2nc(-c2ccc(OCCCN4CC(O)C4)cc2Cl)n3Cc2ccccc2)CC1` [Example H17, 1-(3-(4-(9-benzyl-6-(1-methylcyclopropoxy)-9H-purin-8-yl)-3-chlorophenoxy)propyl)azetidin-3-ol], for which the IC50 with DLD-1 cells was 2000 nM; in the assay with DLD-1 BRCA2−/− cells, 63.1 nM.

Take `CC1(Oc2ncnc3c2nc(-c2ccc(OCCN4CC5(CCN5)C4)cc2Cl)n3Cc2ccccc2)CC1` [Example H18, 8-(4-(2-(1,6-diazaspiro[3.3]heptan-6-yl)ethoxy)-2-chlorophenyl)-9-benzyl-6-(1-methylcyclopropoxy)-9H-purine]: the IC50 in the assay on DLD-1 cells was 3160 nM; in the assay with DLD-1 BRCA2−/− cells, 316 nM.

In the case of `C[C@H]1C(=O)NCCN1CCOc1ccc(-c2nc3c(OC4(C)CC4)ncnc3n2Cc2ccccc2)c(Cl)c1` [Example H19, (S)-4-(2-(4-(9-benzyl-6-(1-methylcyclopropoxy)-9H-purin-8-yl)-3-chlorophenoxy)ethyl)-3-methylpiperazin-2-one], the IC50 is more than 10000 nM in the assay with DLD-1 cells and 63.1 nM in the assay on DLD-1 BRCA2−/− cells.

As for `CC1(Oc2ncnc3c2nc(-c2ccc(OCCN4CC5(C4)CS(=O)(=O)C5)cc2Cl)n3Cc2ccccc2)CC1` [Example H20, 6-(2-(4-(9-benzyl-6-(1-methylcyclopropoxy)-9H-purin-8-yl)-3-chlorophenoxy)ethyl)-2-thia-6-azaspiro[3.3]heptane 2,2-dioxide], the figures for the IC50 in the assay with DLD-1 cells and in the assay on DLD-1 BRCA2−/− cells were 3980 nM and 100 nM, respectively.

Turning to `CC1(Oc2ncnc3c2nc(-c2ccc(OCCN4CCNC(=O)CC4)cc2Cl)n3Cc2ccccc2)CC1` [Example H21, 1-(2-(4-(9-benzyl-6-(1-methylcyclopropoxy)-9H-purin-8-yl)-3-chlorophenoxy)ethyl)-1,4-diazepan-5-one], the IC50 was more than 10000 nM in the assay on DLD-1 cells and 63.1 nM in the assay with DLD-1 BRCA2−/− cells.

Regarding `C[C@@H]1C(=O)NCCN1CCOc1ccc(-c2nc3c(OC4(C)CC4)ncnc3n2Cc2ccccc2)c(Cl)c1` [Example H22, (R)-4-(2-(4-(9-benzyl-6-(1-methylcyclopropoxy)-9H-purin-8-yl)-3-chlorophenoxy)ethyl)-3-methylpiperazin-2-one], the IC50 was more than 10000 nM in the assay with DLD-1 cells and 126 nM in the assay on DLD-1 BRCA2−/− cells.

Take `CC1(Oc2ncnc3c2nc(-c2ccc(OCCN4CC5(CSC5)C4)cc2Cl)n3Cc2ccccc2)CC1` [Example H23, 6-(2-(4-(9-benzyl-6-(1-methylcyclopropoxy)-9H-purin-8-yl)-3-chlorophenoxy)ethyl)-2-thia-6-azaspiro[3.3]heptane]: the IC50 in the assay with DLD-1 cells was 2510 nM; in the assay on DLD-1 BRCA2−/− cells, 126 nM.

Take `CC1(Oc2ncnc3c2nc(-c2ccc(OCCN4CCNCC4)c(Cl)c2Cl)n3Cc2ccccc2)CC1` [Example J1, 9-benzyl-8-(2,3-dichloro-4-(2-(piperazin-1-yl)ethoxy)phenyl)-6-(1-methylcyclopropoxy)-9H-purine]: the IC50 in the assay with DLD-1 cells was 501 nM; in the assay on DLD-1 BRCA2−/− cells, 251 nM.

As for `COc1cc(-c2nc3c(OC4(C)CC4)ncnc3n2Cc2ccccc2)c(Cl)cc1OCCN1CCNCC1` [Example J2, 9-benzyl-8-(2-chloro-5-methoxy-4-(2-(piperazin-1-yl)ethoxy)phenyl)-6-(1-methylcyclopropoxy)-9H-purine], the IC50 with DLD-1 cells is 3980 nM; with DLD-1 BRCA2−/− cells, 794 nM.
